Key:
[1] = target: Recombinant human Bcl-2 protein (Homo sapiens (Human), UniProt P10415); experiment: Bcl-2 TR-FRET Assay; format: binding; conditions: Bcl-2 wild type, TR-FRET; read-out: Biochemical assay (IC50, nM) Bcl-2 WT
Outline: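 Displacement of FITC-labelled Bak peptide (0.5 nM) from 0.05 nM human Bcl-2, detected by TR-FRET with Tb-cryptate anti-6His antibody after 1 h at room temperature. Compounds, 10-point series, preincubated 0.5 h with protein in 20 mM potassium phosphate pH 7.5, 50 mM NaCl. IC50s fitted by four-parameter logistic.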

[2] = target: recombinant human Bcl-2-G101V protein (Homo sapiens (Human), UniProt P10415, G101V); experiment: Bcl-2-G101V TR-FRET Assay; format: binding; conditions: Bcl-2 G101V mutant, TR-FRET; read-out: Biochemical assay (IC50, nM) Bcl-2 G101V
Outline: (§1)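 Displacement of ligand from recombinant human Bcl-2-G101V measured by TR-FRET (ex337 nm, em490/520 nm), inhibition derived from the 490/520 ratio across compound titrations. IC50 from four-parameter logistic fit.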

[3] = test system: recombinant human Bcl-2-G101V protein; experiment: Bcl-2-G101V TR-FRET Assay; format: binding; conditions: ratio of biochemical IC50 Bcl-2 G101V / Bcl-2 WT
Outline: as §1

[4] = test system: RS4;11 (BCL-2 dependent acute lymphoblastic leukemia cell line); experiment: RS4;11 Cell Proliferation Assay; format: cell-based; conditions: Homo sapiens, RS4-11, RS4;11 cells, read-out: Cellular proliferation assay (IC50, nM) RS4
Outline: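 Viability measured via CellTiter-Glo luminescence after a 48 h, 37 °C exposure to compounds (10 points, highest 1 μM). Seeding was 50,000 RS4;11 cells per well in 10% FBS RPMI-1640; IC50 given as mean.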

[5] = test system: BCL-2 G101V knock-in cell line H96 (derive from RS4;11); experiment: Bcl 2-G101V Knock-In RS4;11 Cell Proliferation Assay; format: cell-based; conditions: Homo sapiens, RS4;11 Bcl-2 G101V knock-in clone H96, 48 hrs, CellTiter-GLO, read-out: Cellular proliferation assay (IC50, nM) RS4
Outline: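 CellTiter-Glo luminescence after 48 h, 37 °C compound treatment (10 concentrations, maximum 1 μM or 10 μM) gave mean IC50 values. Cells were 50,000 per well of H96, a BCL2-G101V knock-in single clone derived from RS4;11 by Cas9 editing.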

| SMILES | IC50 [1] [nM] | IC50 [2] [nM] | Ratio of Bcl-2 G101V/WT [3] | IC50 [4] [nM] | IC50 [5] [nM] |
| --- | --- | --- | --- | --- | --- |
| CC(C)c1ccccc1[C@@H]1CN(Cc2ccc(N3CCOCC3)cc2)CCN1C1CC2(C1)CN(c1ccc(C(=O)NS(=O)(=O)c3ccc(NC[C@H]4CC[C@](C)(O)CC4)c([N+](=O)[O-])c3)c(Oc3cnc4[nH]cc(F)c4c3)c1)C2 [Example 368] | 0.064 | 0.29 | 4.5 | 0.096 | 0.24 |
| COc1cc(CN2CCN(C3CC4(CCN(c5ccc(C(=O)NS(=O)(=O)c6ccc(NC[C@H]7CC[C@](C)(O)CC7)c([N+](=O)[O-])c6)c(Oc6cnc7[nH]ccc7c6)c5)CC4)C3)[C@H](c3ccccc3C(C)C)C2)ccc1C(C)C [Example 263, 2-((1H-pyrrolo[2,3-b]pyridin-5-yl)oxy)-N-((4-((((1r,4r)-4-hydroxy-4-methylcyclohexyl)methyl)amino)-3-nitrophenyl)sulfonyl)-4-(2-((R)-4-(4-isopropyl-3-methoxybenzyl)-2-(2-isopropylphenyl)piperazin-1-yl)-7-azaspiro[3.5]nonan-7-yl) benzamide] | 1.3 | 4.9 | 3.9 | 0.18 | 1.01 |
| COc1cc(CN2CCN(C3CC4(C3)CN(c3ccc(C(=O)NS(=O)(=O)c5ccc(NC[C@H]6CC[C@](C)(O)CC6)c([N+](=O)[O-])c5)c(Oc5cnc6[nH]cc(F)c6c5)c3)C4)[C@H](c3ccccc3C(C)C)C2)ccc1C(C)C [Example 269, 2-((3-fluoro-1H-pyrrolo[2,3-b]pyridin-5-yl)oxy)-N-((4-((((1r,4r)-4-hydroxy-4-methylcyclohexyl)methyl)amino)-3-nitrophenyl)sulfonyl)-4-(6-((R)-4-(4-isopropyl-3-methoxybenzyl)-2-(2-isopropylphenyl)piperazin-1-yl)-2-azaspiro[3.3]heptan-2-yl) benzamide] | 2.1 | 4.9 | 2.4 | 0.17 | 0.41 |
| COc1cc(CN2CCN(C3CC4(C3)CN(c3ccc(C(=O)NS(=O)(=O)c5ccc(NC[C@H]6CC[C@](C)(O)CC6)c([N+](=O)[O-])c5)c(Oc5cnc6[nH]ccc6c5)c3)C4)[C@H](c3ccccc3C(C)C)C2)ccc1C(C)C [Example 270, 2-((1H-pyrrolo[2,3-b]pyridin-5-yl)oxy)-N-((4-((((1r,4r)-4-hydroxy-4-methylcyclohexyl)methyl)amino)-3-nitrophenyl)sulfonyl)-4-(6-((R)-4-(4-isopropyl-3-methoxybenzyl)-2-(2-isopropylphenyl)piperazin-1-yl)-2-azaspiro[3.3]heptan-2-yl) benzamide] | 1.1 | 2.9 | 2.6 | 0.16 | 0.64 |
| COc1ccc(CN2CCN(C3CC4(CCN(c5ccc(C(=O)NS(=O)(=O)c6ccc(NC[C@H]7CC[C@](C)(O)CC7)c([N+](=O)[O-])c6)c(Oc6cnc7[nH]ccc7c6)c5)CC4)C3)C(c3ccccc3C(C)C)C2)cc1OC1CC1 (stereo partly drawn) [Example 186, 2-((1H-pyrrolo[2,3-b]pyridin-5-yl)oxy)-4-(2-(4-(3-cyclopropoxy-4-methoxybenzyl)-2-(2-isopropylphenyl)piperazin-1-yl)-7-azaspiro[3.5]nonan-7-yl)-N-((4-((((1r,4r)-4-hydroxy-4-methylcyclohexyl)methyl)amino)-3-nitrophenyl)sulfonyl)benzamide] | 0.15 | 0.64 | 4.2 | 0.53 | 2.5 |
| CC(C)c1ccccc1[C@@H]1CN(Cc2cccc3c2OCC(C)(C)O3)CCN1C1CC2(C1)CN(c1ccc(C(=O)NS(=O)(=O)c3ccc(NC[C@H]4CC[C@](C)(O)CC4)c([N+](=O)[O-])c3)c(Oc3cnc4[nH]cc(F)c4c3)c1)C2 [Example 315, 4-(6-((R)-4-((2,2-dimethyl-2,3-dihydrobenzo[b][1,4]dioxin-5-yl)methyl)-2-(2-isopropylphenyl)piperazin-1-yl)-2-azaspiro[3.3]heptan-2-yl)-2-((3-fluoro-1H-pyrrolo[2,3-b]pyridin-5-yl)oxy)-N-((4-((((1r,4r)-4-hydroxy-4-methylcyclohexyl)methyl)amino)-3-nitrophenyl)sulfonyl)benzamide] | 0.31 | 0.99 | 3.2 | 0.18 | 0.86 |
| COc1cc(CN2CCN(C3CC4(CCN(c5ccc(C(=O)NS(=O)(=O)c6ccc(NC[C@H]7CC[C@](C)(O)CC7)c([N+](=O)[O-])c6)c(Oc6cnc7[nH]ccc7c6)c5)CC4)C3)C(c3ccccc3C(C)C)C2)ccc1Cl (stereo partly drawn) [Example 126, 2-((1H-pyrrolo[2,3-b]pyridin-5-yl)oxy)-4-(2-(4-(4-chloro-3-methoxybenzyl)-2-(2-isopropylphenyl)piperazin-1-yl)-7-azaspiro[3.5]nonan-7-yl)-N-((4-((((1r,4r)-4-hydroxy-4-methylcyclohexyl)methyl)amino)-3-nitrophenyl)sulfonyl)benzamide] | 0.42 | 1.9 | 4.5 | 0.18 | 3.6 |
| COc1ccc(CN2CCN(C3CC4(CCN(c5ccc(C(=O)NS(=O)(=O)c6ccc(NCC7CCOCC7)c([N+](=O)[O-])c6)c(Oc6cnc7[nH]ccc7c6)c5)CC4)C3)[C@H](c3ccccc3C(C)C)C2)cc1 (single isomer, unassigned) [Example 69, (R or S)-2-((1H-pyrrolo[2,3-b]pyridin-5-yl)oxy)-4-(2-(2-(2-isopropylphenyl)-4-(4-methoxybenzyl)piperazin-1-yl)-7-azaspiro[3.5]nonan-7-yl)-N-((3-nitro-4-(((tetrahydro-2H-pyran-4-yl)methyl)amino)phenyl)sulfonyl) benzamide] | 0.041 | 0.37 | 8.9 | 0.47 | 2 |
| CC(C)c1ccccc1C1CN(Cc2cccc3c2CCCO3)CCN1C1CC2(CCN(c3ccc(C(=O)NS(=O)(=O)c4ccc(NC[C@H]5CC[C@](C)(O)CC5)c([N+](=O)[O-])c4)c(Oc4cnc5[nH]ccc5c4)c3)CC2)C1 (stereo partly drawn) [Example 133, 2-((1H-pyrrolo[2,3-b]pyridin-5-yl)oxy)-4-(2-(4-(chroman-5-ylmethyl)-2-(2-isopropylphenyl)piperazin-1-yl)-7-azaspiro[3.5]nonan-7-yl)-N-((4-((((1r,4r)-4-hydroxy-4-methylcyclohexyl)methyl)amino)-3-nitrophenyl)sulfonyl)benzamide] | 0.57 | 1.9 | 3.4 | 0.34 | 2.8 |
| COc1c(Cl)cccc1CN1CCN(C2CC3(CCN(c4ccc(C(=O)NS(=O)(=O)c5ccc(NC[C@H]6CC[C@](C)(O)CC6)c([N+](=O)[O-])c5)c(Oc5cnc6[nH]ccc6c5)c4)CC3)C2)C(c2ccccc2C(C)C)C1 (stereo partly drawn) [Example 119, 2-((1H-pyrrolo[2,3-b]pyridin-5-yl)oxy)-4-(2-(4-(3-chloro-2-methoxybenzyl)-2-(2-isopropylphenyl)piperazin-1-yl)-7-azaspiro[3.5]nonan-7-yl)-N-((4-((((1r,4r)-4-hydroxy-4-methylcyclohexyl)methyl)amino)-3-nitrophenyl)sulfonyl)benzamide] | 0.37 | 3.1 | 8.5 | 1.44 | 14.4 |
| COc1ccc(CN2CCN(C3CC4(C3)CN(c3ccc(C(=O)NS(=O)(=O)c5ccc(NCC6CCOCC6)c([N+](=O)[O-])c5)c(Oc5cnc6[nH]cc(F)c6c5)c3)C4)[C@H](c3ccccc3C(C)C)C2)cc1 [Example 183, (R)-2-((3-fluoro-1H-pyrrolo[2,3-b]pyridin-5-yl)oxy)-4-(6-(2-(2-isopropylphenyl)-4-(4-methoxybenzyl)piperazin-1-yl)-2-azaspiro[3.3]heptan-2-yl)-N-((3-nitro-4-(((tetrahydro-2H-pyran-4-yl)methyl)amino)phenyl)sulfonyl) benzamide] | 0.096 | 0.18 | 1.8 | 0.1 | 0.52 |
| CC(C)c1ccccc1C1CN(C(=O)c2ccccc2)CCN1C1CC2(CCN(c3ccc(C(=O)NS(=O)(=O)c4ccc(NC[C@H]5CC[C@](C)(O)CC5)c([N+](=O)[O-])c4)c(Oc4cnc5[nH]ccc5c4)c3)CC2)C1 (stereo partly drawn) [Example 60] | 0.057 | 1.6 | 28.1 | 0.35 | 2.52 |
